The values that follow come from US12252481B2, “Anti-viral compounds” (Aligos Therapeutics, Inc., priority 2021, dated 2025).

Like-named read-outs stand apart in the source and are kept apart here. Where only a bound is given, the exact number is not on record here.

For assay [1], the system named is human beta-coronavirus OC43. The experiment in a line: OC43 coronavirus antiviral assay in HeLa cells (cytopathic effect, cell-titer-glo). The format is cell-based. Conditions: Betacoronavirus 1, OC43, HeLa, 144 h, 6 days at 33° C. On the technique in general: Damage to the host cells serves as the signal in cytopathic effect assays.
The target in the next assay is T1, human cathepsin L (Homo sapiens, UniProt P07711).
T1 construct: purchased R&D Systems
The experiment in a line: Cathepsin L assay (Z-FR-AMC fluorescence). The class given is biochemical. Particulars: 10 pM human cathepsin L, 30 mins preincubation, Z-FR-AMC 2 μM. The procedure:
For the cathepsin L assay, 10 pM of human cathepsin L (R&D Systems; Minneapolis, MN) was preincubated for 30 mins with test compounds. Reactions were initiated by the addition of a peptide substrate Z—FR-AMC (final concentration 2 μM, Anaspec; Fremont, CA). Fluorescence was measured at 2-minute intervals for 30 mins using a 355/460 excitation/emission filter module on an Envision plate reader (Perkin Elmer; Waltham, MA). The IC50 values were calculated for each assay by fitting the curves using a four-parameter equation in GraphPad Prism.

For another assay, the target named is T2, SARS-Cov-2 3CLpro (Severe acute respiratory syndrome coronavirus 2, UniProt P0DTD1).
T2 construct: 3CLpro and HRV3C was added using a Multidrop Combi
The experiment in a line: biochemical. Particulars: 3CLpro, 30 mins preincubation, SAMDI-MS; read-out: SARS-Cov-2 IC50 (class).

The test system of assay [2] is SARS-CoV-2-GHB-03021/2020. The format is cell-based. Particulars: read-out: VeroE6 + CP (EC50).
Another assay has as its target T3, HRV3C (Human rhinovirus 14, UniProt P03303).
T3 construct: 3CLpro and HRV3C was added using a Multidrop Combi
The experiment in a line: biochemical. The arrangement: species or system HRV. Particulars: HRV3C, 30 mins preincubation, SAMDI-MS.

Assay [3] deals with B.1.1.7 lineage SARS-CoV-2. The experiment in a line: microbe, parasite or virus in culture. The class given is cell-based. Conditions: Severe acute respiratory syndrome coronavirus 2, 96 h; read-out: A549-dual_ACE2_TMPRSS2 (EC50).

T3 sequence (P03303 1538-1719): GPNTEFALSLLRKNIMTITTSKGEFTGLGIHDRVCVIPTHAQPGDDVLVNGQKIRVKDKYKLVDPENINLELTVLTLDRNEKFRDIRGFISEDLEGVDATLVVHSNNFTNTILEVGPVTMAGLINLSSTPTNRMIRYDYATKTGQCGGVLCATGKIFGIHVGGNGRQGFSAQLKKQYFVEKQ
T1 sequence (P07711 114-333): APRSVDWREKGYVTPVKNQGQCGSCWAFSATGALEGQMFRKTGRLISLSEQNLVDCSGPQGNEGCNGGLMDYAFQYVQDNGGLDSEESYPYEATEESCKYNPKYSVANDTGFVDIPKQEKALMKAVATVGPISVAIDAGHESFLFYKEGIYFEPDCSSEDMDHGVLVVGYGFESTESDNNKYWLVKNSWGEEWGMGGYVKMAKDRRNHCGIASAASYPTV

For orientation: EC50 means the midpoint of the concentration-response curve. What is called IC50 is the point on the concentration scale where inhibition reaches its midpoint. As to `CC(C)(C)[C@H](NC(=O)[C@H]1CC1(F)F)C(=O)N1C[C@H]2[C@@H]([C@H]1C(=O)N[C@H](C#N)C[C@@H]1CCNC1=O)[C@H]1C=C[C@@H]2C1` [Example 33, (1S,3aR,4S,7R,7aS)-N-((S)-1-cyano-2-((S)-2-oxopyrrolidin-3-yl)ethyl)-2-((S)-2-((R)-2,2-difluorocyclopropane-1-carboxamido)-3,3-dimethylbutanoyl)-2,3,3a,4,7,7a-hexahydro-1H-4,7-methanoisoindole-1-carboxamide], the half-maximal effective concentration (EC50) in assay [1] (read-out: EC50 (class)) was under 100 nM; in assay [2] it was under 100 nM; in assay [3], 100 to 1000 nM. Moreover, the concentration for half-maximal inhibition (IC50) is at least 10 µM on human cathepsin L, under 20 nM at SARS-Cov-2 3CLpro and over 10 µM on HRV3C (read-out: HRV IC50 (bound)).
For `CC(C)(C)[C@H](NC(=O)C(F)(F)F)C(=O)N1C[C@H]2[C@@H]([C@H]1C(=O)NC(C#N)Cc1ccc[nH]c1=O)[C@H]1C=C[C@@H]2C1` (single isomer, unassigned) [Compound 57, (1S,3aR,4S,7R,7aS)-N-((S*)-1-cyano-2-(2-oxo-1,2-dihydropyridin-3-yl)ethyl)-2-((S)-3,3-dimethyl-2-(2,2,2-trifluoroacetamido)butanoyl)-2,3,3a,4,7,7a-hexahydro-1H-4,7-methanoisoindole-1-carboxamide], the concentration giving a half-maximal response (EC50) in assay [1] (read-out: EC50 (class)), in assay [2] and in assay [3] was 100 to 1000 nM each time. The IC50 against human cathepsin L was at least 10 µM; on SARS-Cov-2 3CLpro, 20 to 200 nM; at HRV3C (read-out: HRV IC50 (bound)), over 10 µM.
Turning to `CC(C)(C)[C@H](NC(=O)C1COC1)C(=O)N1C[C@H]2[C@@H]([C@H]1C(=O)N[C@H](C#N)C[C@@H]1CCNC1=O)[C@H]1C=C[C@@H]2C1` [Example 36, (1R,2S,3S,6R,7S)—N-[(1S)-1-cyano-2-[(3S)-2-oxopyrrolidin-3-yl]ethyl]-4-[(2S)-3,3-dimethyl-2-(oxetan-3-ylformamido)butanoyl]-4-azatricyclo[5.2.1.0^{2,6}]dec-8-ene-3-carboxamide], the concentration for a half-maximal effect (EC50) in assay [1] (read-out: EC50 (class)) is 100 to 1000 nM; in assay [2], 100 to 1000 nM; in assay [3], 1000 to 10000 nM. Besides, the figures for the half-inhibitory concentration (IC50) on human cathepsin L, on SARS-Cov-2 3CLpro and on HRV3C (read-out: HRV IC50 (bound)) were at least 10 µM, under 20 nM and over 10 µM, respectively.
As to `CC(C)(C)[C@H](NC(=O)C(F)(F)F)C(=O)N1C[C@H]2[C@@H]([C@H]1C(=O)N[C@H](C#N)C[C@@H]1CCNC1=O)[C@H]1C=C[C@@H]2CC1` (mixture of isomers) [Compound 59], the EC50 in assay [1] (read-out: EC50 (class)), in assay [2] and in assay [3] was under 100 nM in each case. Further, the results for the IC50 at human cathepsin L, at SARS-Cov-2 3CLpro and at HRV3C (read-out: HRV IC50 (bound)) were at least 10 µM, under 20 nM and over 10 µM, respectively.
As to `CC(C)(C)[C@H](NC(=O)C1(F)CC1)C(=O)N1C[C@H]2[C@@H]([C@H]1C(=O)N[C@H](C#N)C[C@@H]1CCNC1=O)[C@H]1C=C[C@@H]2C1` [Example 30, (1R,2S,3S,6R,7S)—N-[(1S)-1-cyano-2-[(3S)-2-oxopyrrolidin-3-yl]ethyl]-4-[(2S)-2-[(1-fluorocyclopropyl)formamido]-3,3-dimethylbutanoyl]-4-azatricyclo[5.2.1.0^{2,6}]dec-8-ene-3-carboxamide], the concentration giving a half-maximal response (EC50) in assay [1] (read-out: EC50 (class)), in assay [2] and in assay [3] was under 100 nM each time. Besides, the results for the concentration for half-maximal inhibition (IC50) at human cathepsin L, on SARS-Cov-2 3CLpro and at HRV3C (read-out: HRV IC50 (bound)) were at least 10 µM, under 20 nM and over 10 µM, respectively.
On to `CC(C)(C)[C@H](NC(=O)C(F)(F)F)C(=O)N1C[C@H]2[C@@H]([C@H]1C(=O)NC(C#N)CC1CCc3cnnn31)[C@H]1C=C[C@@H]2C1` (stereo partly drawn) [Example 37, (1R,2S,3S,6R,7S)—N-(1-cyano-2-{4H,5H,6H-pyrrolo[1,2-c][1,2,3]triazol-6-yl}ethyl)-4-[(2S)-3,3-dimethyl-2-(2,2,2-trifluoroacetamido)butanoyl]-4-azatricyclo[5.2.1.0^{2,6}]dec-8-ene-3-carboxamide], for which the half-maximal effective concentration (EC50) in assay [1] (read-out: EC50 (bound)) was over 10000 nM; in assay [2] it was 1000 to 10000 nM; in assay [3], 1000 to 10000 nM. Further, the half-maximal inhibitory concentration (IC50) is at least 10 µM at human cathepsin L, 20 to 200 nM at SARS-Cov-2 3CLpro and over 10 µM at HRV3C (read-out: HRV IC50 (bound)).
In the case of `CC(C)(C)[C@H](NC(=O)C(F)(F)F)C(=O)N1C[C@H]2[C@@H]([C@H]1C(=O)NC(C#N)C[C@]13CC[C@H](C1)NC3=O)[C@H]1C=C[C@@H]2C1` (stereo partly drawn) [Example 26, (1S,3aR,4S,7R,7aS)—N-(1-cyano-2-((1R,4S)-3-oxo-2-azabicyclo[2.2.1]heptan-4-yl)ethyl)-2-((S)-3,3-dimethyl-2-(2,2,2-trifluoroacetamido)butanoyl)-2,3,3a,4,7,7a-hexahydro-1H-4,7-methanoisoindole-1-carboxamide], the EC50 in assay [1] (read-out: EC50 (class)), in assay [2] and in assay [3] was 100 to 1000 nM each time. Besides, the IC50 against human cathepsin L is at least 10 µM; on SARS-Cov-2 3CLpro, 20 to 200 nM; at HRV3C (read-out: HRV IC50 (bound)), over 10 µM.
With `O=C(NC1CC1)C(=O)C(C[C@@H]1CCNC1=O)NC(=O)[C@@H]1[C@@H]2[C@H](CN1C(=O)c1nc3c(Cl)ccc(Cl)c3[nH]1)[C@@H]1C=C[C@H]2C1` (stereo partly drawn) [Compound 45, (1S,3aR,4S,7R,7aS)—N-(4-(cyclopropylamino)-3,4-dioxo-1-((S)-2-oxopyrrolidin-3-yl)butan-2-yl)-2-(4,7-dichloro-1H-benzo[d]imidazole-2-carbonyl)-2,3,3a,4,7,7a-hexahydro-1H-4,7-methanoisoindole-1-carboxamide], the concentration for a half-maximal effect (EC50) in assay [1] (read-out: EC50 (class)), in assay [2] and in assay [3] was 1000 to 10000 nM in each case. For the same compound, the values for the 50% inhibitory concentration (IC50) on human cathepsin L, on SARS-Cov-2 3CLpro and on HRV3C (read-out: HRV IC50 (class)) were at least 10 µM, 20 to 200 nM and 2 to 20 µM, respectively.
Consider `CC(C)(C)[C@H](NC(=O)C(F)(F)Cl)C(=O)N1C[C@H]2[C@@H]([C@H]1C(=O)N[C@H](C#N)C[C@@H]1CCNC1=O)[C@H]1C=C[C@@H]2C1` [Example 39, (1R,2S,3S,6R,7S)-4-[(2S)-2-(2-chloro-2,2-difluoroacetamido)-3,3-dimethylbutanoyl]-N-[(1S)-1-cyano-2-[(3S)-2-oxopyrrolidin-3-yl]ethyl]-4-azatricyclo[5.2.1.0^{2,6}]dec-8-ene-3-carboxamide], for which the concentration giving a half-maximal response (EC50) in assay [1] (read-out: EC50 (class)), in assay [2] and in assay [3] was under 100 nM in each case. In addition, the IC50 at human cathepsin L is at least 10 µM; on SARS-Cov-2 3CLpro, under 20 nM; on HRV3C (read-out: HRV IC50 (bound)), over 10 µM.
As to `CC(C)(C)[C@H](NC(=O)C(F)(F)F)C(=O)N1C[C@@H]2[C@H]3C[C@H]([C@@H]4C[C@@H]43)[C@@H]2[C@H]1C(=O)N[C@H](C#N)C[C@@H]1CCNC1=O` [Example 2, (1R,2S,3S,6R,7S,8S,10R)—N-[(1S)-1-cyano-2-[(3S)-2-oxopyrrolidin-3-yl]ethyl]-4-[(2S)-3,3-dimethyl-2-(2,2,2-trifluoroacetamido)butanoyl]-4-azatetracyclo[5.3.1.0^{2,6}0.0^{8,10}]undecane-3-carboxamide], the EC50 in assay [1] (read-out: EC50 (class)) is 100 to 1000 nM; in assay [2], under 100 nM; in assay [3], under 100 nM. Also, the IC50 was at least 10 µM on human cathepsin L, 20 to 200 nM at SARS-Cov-2 3CLpro and over 10 µM at HRV3C (read-out: HRV IC50 (bound)).
